The structures appear in SMILES notation.

A short description of data set [1]: Encapsulation of paclitaxel or baccatin in ELVAX:poly-l-lactic acid microspheres. In kind it is physicochemical. As to conditions: for amount encapsulated: from 500 μg. How it is done: Microspheres are then prepared in a dissolution machine (Six-spindle dissolution tester, VanderKanp, Van Kell Industries Inc., U.S.A.) in triplicate at 200 rpm, 42° C., for 3 hours. Microspheres so prepared are washed twice in water and sized on the microscope.

Data set [2] has as its system neutrophils. The data set can be described thus: Neutrophil chemiluminescence in response to plasma opsonized CPPD or zymosan. Format: cell-based, human. On the procedure:
CPPD (triclinic) crystals were prepared. The size distribution of the crystals was approximately 33% less than 10 μm, 58% between 10 and 20 μm and 9% greater than 20 μm. Crystals prepared under the above conditions are pyrogen free and crystals produced under sterile, pyrogen free conditions produced the same magnitude of neutrophil response as crystals prepared under normal, non-sterile laboratory conditions.
(§1) All experiments that studied neutrophil responses to crystals or zymosan in the presence of paclitaxel were performed using plasma opsonized CPPD or zymosan. Opsonization of crystals or zymosan was done with 50% heparinized plasma at a concentration of 75 mg of CPPD or 12 mg of zymosan per ml of 50% plasma. Crystals or zymosan were incubated with plasma for 30 min. at 37° C. and then washed in excess HBSS.
All chemiluminescence studies were performed at a cell concentration of 5,000,000 cells/ml in HBSS with CPPD (50 mg/ml). In all experiments 0.5 ml of cells was added to 25 mg of CPPD or 0.5 mg of zymosan in 1.5 ml capped Eppendorf tubes. 10 μl of luminol dissolved in 25% DMSO in HBSS was added to a final concentration of 1 μM and the samples were mixed to initiate neutrophil activation by the crystals or zymosan. Chemiluminescence was monitored using an LKB Luminometer (Model 1250.) at 37° C. with shaking immediately prior to measurements to resuspend the crystals or zymosan. Control tubes contained cells, drug and luminol (crystals absent).

Data set [3] relates to neutrophils. Nature of the data set: Neutrophil superoxide anion generation. Format: cell-based, human. As to conditions: 28 μM. On the procedure:
as §1
Superoxide anion concentrations were measured using the superoxide dismutase inhibitable reduction of cytochrome c assay. Briefly, 25 mg of crystals or 0.5 mg of zymosan was placed in a 1.5 ml capped Eppendorf tube and warmed to 37° C. 0.5 ml of cells at 37° C. were added together with ferricytochrome c (final concentration 1.2 mg/ml) and the cells were activated by shaking the capped tubes. […] Control tubes were set up under the same conditions with the inclusion of superoxide dismutase at 600 units per ml.

For the next data set, the system named is normal chondrocytes. The data set can be described thus: Chondrocyte viability (Trypan blue). Format: cell-based. As to conditions: 72 hours.

As to `CC(=O)O[C@H]1C(=O)[C@@]2(C)[C@H]([C@H](OC(=O)c3ccccc3)[C@]3(O)C[C@H](OC(=O)[C@H](O)[C@@H](NC(=O)c4ccccc4)c4ccccc4)C(C)=C1C3(C)C)[C@]1(OC(C)=O)CO[C@@H]1C[C@@H]2O` [paclitaxel], the “encapsulated, % by weight of the polymer” value in data set [1] (fluorescence) was 1.5%; in data set [1] (uv/vis), 1.2%. Besides, the “encapsulated, % of original weight” value came out at 15% in data set [1] (fluorescence) and 12% in data set [1] (uv/vis). Also, the values for the amount encapsulated in data set [1] (fluorescence) and in data set [1] (uv/vis) were 75 µg and 58 µg, respectively. The “inhibition of chemiluminescence over time” value in the data set on neutrophils [2] (28 μM, CPPD and zymosan) is “significant at all times from 3 to 16 minutes”. The “effect on chemiluminescence of controls” value with neutrophils [2] (all concentrations, no stimulus) is on record as “no effect on the chemiluminescence values of controls”. Moreover, the neutrophil activation result with neutrophils [2] (crystal or particulate induced) is recorded as “strong inhibitor”. The superoxide anion production result with neutrophils [3] (CPPD) is “decrease in the amount of superoxide generated at all times”; in the data set on neutrophils [3] (zymosan) it was “less dramatic than the inhibition of CPPD activation but was significant at all times”. Also, in the data set on normal chondrocytes, the “cytotoxicity to normal chondrocytes” value was “no cytotoxicity to normal chondrocytes”. In addition, in the data set on normal chondrocytes (up to 10^-5 M), the “viability of normal chondrocytes” value is “does not affect the viability of normal chondrocytes”.

The values are drawn from US5886026A, “Anti-angiogenic compositions and methods of use” (priority 1994, dated 1999).
